According to patent US20220023258A1, “METHODS OF TREATING CONDITIONS RELATED TO THE S1P1 RECEPTOR” (Arena Pharmaceuticals, Inc., priority 2018, published 2022):

Columns and labels:
male Sprague-Dawley rats = conditions: see WO2010/011316, Example 9; cited from earlier work
[1] = tested on: peripheral blood lymphocyte (PBL) counts; experiment: Phase 1 single dose study: peripheral blood lymphocyte counts; format: in vivo, human
Method: Compound 1 was administered as the L-arginine salt.

subjects = experiment: Phase 1 single dose study: safety and tolerability
Method: A phase 1 study with Compound 1 was conducted with single dosing at 0.1 mg, 0.35 mg, 1 mg, 3 mg, and 5 mg. Compound 1 was administered as the L-arginine salt.

SMILES: O=C(O)C[C@H]1CCc2c1[nH]c1ccc(OCc3ccc(C4CCCC4)c(C(F)(F)F)c3)cc21 [Compound 1, (R)-2-(7-(4-cyclopentyl-3-(trifluoromethyl)benzyloxy)-1,2,3,4-tetrahydrocyclopenta[b]indol-3-yl)acetic acid]
- bradycardia (male Sprague-Dawley rats): no or substantially no bradycardia
- PBL counts reduced ([1]; single dose 3 mg): ~40%
- PBL counts reduced ([1]; single dose 5 mg): ~55%
- absolute number of peripheral blood B cells, T cells, NK cells, and all T cell subsets except TEM cells ([1]; single dose 3 and 5 mg): dose responsive decline
- persistence of PBL nadir ([1]; single dosing): 24 h
- time after dosing by which total PBL counts were reduced ([1]; single dosing): 2 to 4 h
- time of nadir of total PBL counts ([1]; single dosing): ≤ 8 h
- recovery of PBL counts to baseline ([1]; single dosing, after nadir period): 4 days
- other safety issues (vital signs, ECGs, pulmonary function tests, ophthalmoscopy, clinical laboratory tests) (subjects; in vivo): no other clinically significant safety issues
- maximum tolerated dose (subjects; single dosing): 3 mg
- deaths or serious adverse events (subjects; single dosing 0.1-5 mg): no deaths or serious adverse events
